{
  "source": "patent US5633274A",
  "about": "“Cancer treatments” (President and Fellows of Harvard College, priority 1993, dated 1997)",
  "key": {"[1]": {"system": "Primary human sarcomas liposarcoma", "assay": "Cell growth of primary human liposarcoma (surface covered by monolayer)", "assay_type": "cell-based", "conditions": "10 μM CLT; 48 hours", "procedure": "(§1) Measurement of cell density in culture plates: Cells of a specific test cell line are seeded at precisely the same low density in culture plates and incubated for approximately 12 hours in DME 10% serum, or other culture medium depending on the cell line tested. […] Alternatively, the cells can be detached from the plate by incubation with trypsin (Sigma, Co.) […] in ethylene diaminotetraacetic acid (ECTA; Sigma, Co); then the cells are counted in an hemocytometer chamber (Fisher, Pittsburgh, Pa.).\n(§2) Primary human sarcomas rabdomyosarcoma and liposarcoma: Fresh human cancer specimens were obtained from human subjects undergoing a surgical procedure; the tumors were treated with colagenase to dissociate the cells which were then seeded at low density (1×10^5 in small culture chambers containing hybridomas grade culture medium supplemented with 5% fetal calf serum; after 12 hrs., when the cells were attached to the surface of the culture chambers, CLT (10 μM) or carrier (ethanol) were added *triplicate chambers). After 48 hours cell growth was assessed by optic miscroscopy calculating the surface of the culture flask covered by the cell monolayer."}, "[2]": {"target": "T1, Ca++ activated K channel of human erythrocytes (Homo sapiens, UniProt O15554)", "T1 construct": "Preparation of Human Red Blood Cells: Blood is collected in heparinized tubes; endogenous in cells; host or cells: washed human erythrocytes (red blood cells) from heparinized blood", "assay": "Inhibition of Ca++ activated K channel of human erythrocytes (86Rb influx, K efflux)", "assay_type": "cell-based", "procedure": "Preparation of Human Red Blood Cells: Blood is collected in heparinized tubes and centrifuged in a Sorvall centrifuge (RB 5B, Du Pont Instruments,Newtown, Conn.) at 5° C. for 10 minutes at 3000 g. Plasma and buffy coat are carefully removed and the cells washed four times with a washing solution containing 150 mM choline chloride (Sigma Co), 1 mM MgC12 (Sigma Co), 10 mM Tris-MOPS (Sigma, Ca), pH 7.4 at 4° C.(CWS). An aliquot of cells is then suspended in an approximately equal volume of CWS, and from this original cell suspension hematocrit (Hct) and hemoglobin (optical density at 540 nm) are determined.\nMethods to Test Inhibitors of the Ca^++ Activated K: To test inhibitors of the Ca^++ activated K channel, the channel is activated using the calcium ionophore A23187 (Chalbiochem).\nBy Atomic Absorption Spectrometry: Washed human erythrocyte are suspended at an hematocrit≈1% in CWS containing 0.150 mM CaCl2 (Sigma Co) Aliquots of 1 ml are removed at 0, 3 and 5 minutes, layered on top of 0.3 ml of the oil n-butyl phthalate (Fair Lane, N.J.) placed in an Eppendorf microtube (Fisher) and then centrifuged in a micro centrifuge for 20 seconds. At time 5.30 minutes, ionophore A23187 (1 μM final concentration) is added and samples removed and spin down through phthalate at times 6, 7, 8 and 9 minutes. The supernatant on top of the oil layer is removed and its K+ concentration is measured by atomic absorption spectrometry using a Perking Elmer model 5000 spectrometer (Perkin Elmer Corp., Norwolk, Conn.). The efflux of K+ (mmol/l cells/h) in the absence and presence of the inhibitor is calculated from the slope of the curves relating the K+ concentration in the supernatants (mmol/l cells) vs. time (min.).\nBy radioisotopic measurement of ^86 Rb influx. The incubation medium is the same but contains 2 mM KCl and 1 μCi/ml of the radioactive tracer ^86 Rb. After spinning the samples through the phthalate layer, the tubes are rapidly frozen (-80° C.) by immersion in methanol-dry ice, the tips of the tubes containing the packed red cells cut, and counted in a Packard Gamma Counter.\nThe inhibitory effect of (CLT) on the Ca^++ activated K channel of human erythrocytes was assessed in the presence of 60 μmol A23187/L cell and 100 μMCaCl2.\nOther antimycotics were tested for their inhibition of the Ca++ activated 86Rb influx human erythrocytes."}, "[3]": {"system": "Primary human sarcomas rabdomyosarcoma", "assay": "Cell growth of primary human rabdomyosarcoma (surface covered by monolayer)", "assay_type": "cell-based", "conditions": "10 μM CLT; 48 hours", "procedure": "as §1, §2"}, "[4]": {"system": "human colon adenocarcinoma cells", "assay": "DNA synthesis ([3H]thymidine incorporation) in human colon adenocarcinoma cells", "assay_type": "cell-based", "conditions": "FIG. 1", "procedure": "(§3) The inhibitory effect of clotrimazol (CLT) on cell proliferation was assessed in cancerous cells. Quiescent human colon adenocarcinoma and human lung adenocarcinoma cells were stimulated with 5% fetal calf serum and synthesis of DNA was assessed by the incorporation of [3H]thymidine measures 24 hours later. […] The effect was not due to a toxic, non-specific, effect because it was reversed by removing CLT and re-stimulating the cells with 5% fetal calf serum (FIG. 1)."}, "[5]": {"system": "human lung adenocarcinoma cells", "assay": "DNA synthesis ([3H]thymidine incorporation) in human lung adenocarcinoma cells", "assay_type": "cell-based", "conditions": "FIG. 1", "procedure": "as §3"}, "adenocarcinomas in rats": {"system": "adenocarcinomas in rats", "assay": "Inhibition of tumor growth in vivo (adenocarcinomas in rats)", "set-up": "species or system rat", "procedure": "The efficacy of CLT was studied in inhibiting the growth of adenocarcinomas in rats. […] Tumors were measured by size and weight on a daily basis, and growth rates were calculated. Nonparametric statistical comparisons were made among the median growth rates of all of the treatment groups."}, "[6]": {"system": "primary human sarcoma cells", "assay": "bFGF-stimulated DNA synthesis in primary human sarcoma cells", "assay_type": "cell-based", "conditions": "for inhibition of DNA synthesis by other inhibitors of the Ca++ activated K channel: toxins, concentration not given", "procedure": "as §2\nOther antimycotics were tested for their inhibition of bFGF-stimulated DNA synthesis in the primary human sarcoma cells of Example 3."}, "[7]": {"system": "rat vascular smooth muscle cells", "description": "(§4) DNA synthesis assessed by the uptake of [3H]thymidine: Cells are grown in either 48 or 96 wells plates (Costar, Cambridge, Mass.) at 10^4 and 0.8 10^3 cells per well, respectively, and grown in Dubelcco's modified Eagle's medium (DME, Gibco, Grand Island, N.Y.) supplemented with 10% heat-inactivated calf serum; they are kept at 37° C. in 5% CO2. When they reach confluence, usually between 3 and 4 days, the medium is replaced with DME 0.5% serum to make them quiescent, and mitogenesis assays are performed 24 hours later.\n(§5) Quiescent cells are exposed to a mitogenic stimulus, such as 10% serum, PDGF (Sigma Co. St. Louis, Mo.), bFGF (Upstate Biotechnologies, Lake Placid, N.Y.), or other appropriate mitogen according to the cell line, and 3 hours later 1 μCi/ml of [3H]thymidine (Dupont, Billerica, Mass.) is added to the wells, and the cells maintained at 37° C./5% CO2 for additional 21 hours. Then the cells are washed 3 times with DME medium and the acid-precipitable radioactivity is extracted with cold 10% TCA (Sigma, Co). After neutralization with 0.3N NaOH (Sigma Co.), aliquots are counted in a Packard Tri-Carb Scintillation counter (Packard Instrument, Downer's Grove, Ill.).\nCells were stimulated using 5 μM bFGF."}, "[8]": {"system": "rat vascular smooth muscle cells", "assay": "cells", "conditions": "read-out: inhibition of DNA synthesis", "description": "as §4, §5\nCells were stimulated using 5 μM bFGF."}, "nonprostate cancer cells": {"system": "nonprostate cancer cells", "assay": "Proliferation of nonprostate cancer cells (general statements)", "assay_type": "cell-based", "conditions": "for inhibition of (nonprostate cancer) cell proliferation: other channel and transport inhibitors"}, "17-hydroxylase": {"system": "17-hydroxylase", "conditions": "background; cited from earlier work"}, "[9]": {"system": "testicular and adrenal synthesis of steroid hormones, including testosterone", "conditions": "cited from earlier work"}, "[10]": {"system": "21- and/or 11-hydroxylase", "conditions": "background; cited from earlier work"}, "17-20 desmolase": {"system": "17-20 desmolase", "conditions": "background; cited from earlier work"}, "[11]": {"conditions": "60 μmol A23187/L cell and 100 μM CaCl2"}, "[12]": {"conditions": "10 μM CLT, 5% fetal calf serum stimulation, 24 hours"}, "[13]": {"conditions": "re-stimulated with 5% fetal calf serum"}, "[14]": {"conditions": "other antimycotics, human erythrocytes, FIG. 4"}},
  "note": "“Also recorded” adds a separate entry of the source. Where two headings read alike, the source gives them in different places.",
  "data": [
    {"compound": "Clc1ccccc1C(c1ccccc1)(c1ccccc1)n1ccnc1", "note": "[clotrimazole]", "values": [
      {"measurement": "growth of sarcoma cells", "setting": "[1]", "result": "completely arrested"},
      {"measurement": "inhibition of growth", "setting": "[1]", "result": "More than 95%"},
      {"measurement": "inhibition of Ca++ activated 86Rb influx", "setting": "[2]; [11]", "result": "markedly inhibited"},
      {"measurement": "inhibition of K efflux", "setting": "[2]; [11]", "result": "markedly inhibited"},
      {"measurement": "order of inhibitory potency (Ca++ activated 86Rb influx)", "setting": "[2]; human erythrocytes, FIG. 4", "result": "clotrimazole more than miconazole"},
      {"measurement": "growth of sarcoma cells", "setting": "[3]", "result": "completely arrested"},
      {"measurement": "inhibition of growth", "setting": "[3]", "result": "More than 95%"},
      {"measurement": "inhibition of DNA synthesis", "setting": "[4]; [12]", "result": "completely inhibited"},
      {"measurement": "reversibility of effect on removing CLT and re-stimulating (not due to a toxic, non-specific effect)", "setting": "[4]; [13]", "result": "reversed"},
      {"measurement": "inhibition of DNA synthesis", "setting": "[5]; [12]", "result": "completely inhibited"},
      {"measurement": "reversibility of effect on removing CLT and re-stimulating (not due to a toxic, non-specific effect)", "setting": "[5]; [13]", "result": "reversed"},
      {"measurement": "median tumor growth rate", "setting": "adenocarcinomas in rats; 100 mg/kg by mouth in peanut oil", "result": "significant reduction"},
      {"measurement": "median tumor growth rate", "setting": "adenocarcinomas in rats; 200 mg/kg by mouth in peanut oil", "result": "significant reduction"},
      {"measurement": "order of inhibitory potency (DNA synthesis)", "setting": "[6]", "result": "CLT more potent than ECZ"},
      {"measurement": "inhibition of bFGF-stimulated DNA synthesis", "setting": "[6]; 10 µM", "result": "inhibited DNA synthesis"},
      {"measurement": "dose dependence of inhibition of DNA synthesis", "setting": "[7]; 0.001 μM, 0.1 μM, 1 μM and 10 μM", "result": "dose dependent"},
      {"measurement": "inhibition of DNA synthesis", "setting": "[7]; 10 μM, bFGF stimulation", "result": "complete inhibition"},
      {"measurement": "inhibition at 1 µM", "setting": "[8]", "result": 45, "unit": "%"}
    ]},
    {"compound": "Clc1ccc(COC(Cn2ccnc2)c2ccc(Cl)cc2Cl)c(Cl)c1", "note": "(stereo not shown) [miconazole]", "values": [
      {"measurement": "order of inhibitory potency (Ca++ activated 86Rb influx)", "setting": "[2]; human erythrocytes, FIG. 4", "result": "clotrimazole more than miconazole; and both of these were more than econazole"},
      {"measurement": "inhibition of bFGF-stimulated DNA synthesis", "setting": "[6]; 10 μM, FIG. 3", "result": "inhibited DNA synthesis"},
      {"measurement": "order of inhibitory potency (DNA synthesis)", "setting": "[6]; 10 μM, FIG. 3", "result": "ECZ more potent than MCZ"}
    ]},
    {"compound": "CCS(=O)(=O)CCn1c([N+](=O)[O-])cnc1C", "note": "[tinidazole]", "values": [
      {"measurement": "inhibition of Ca++ activated 86Rb influx", "setting": "[2]; [14]", "result": "no inhibition"}
    ]},
    {"compound": "C[C@@H]1O[C@@H](O[C@H]2C[C@@H](O)[C@]3(CO)[C@H]4[C@H](O)C[C@]5(C)[C@@H](C6=CC(=O)OC6)CC[C@]5(O)[C@@H]4CC[C@]3(O)C2)[C@H](O)[C@H](O)[C@H]1O", "note": "[ouabain]", "values": [
      {"measurement": "inhibition of (nonprostate cancer) cell proliferation", "setting": "nonprostate cancer cells", "result": "do not inhibit cell proliferation"}
    ]},
    {"compound": "charybdotoxin", "values": [
      {"measurement": "inhibition of (nonprostate cancer) cell proliferation", "setting": "nonprostate cancer cells", "result": "do not inhibit proliferation"},
      {"measurement": "inhibition of DNA synthesis by other inhibitors of the Ca++ activated K channel", "setting": "[6]", "result": "failed to inhibit DNA synthesis"}
    ]},
    {"compound": "Clc1ccc(COC(Cn2ccnc2)c2ccc(Cl)cc2Cl)cc1", "note": "(stereo not shown) [econazole]", "values": [
      {"measurement": "order of inhibitory potency (Ca++ activated 86Rb influx)", "setting": "[2]; human erythrocytes, FIG. 4", "result": "both of these were more than econazole"},
      {"measurement": "inhibition of bFGF-stimulated DNA synthesis", "setting": "[6]; 10 μM, FIG. 3", "result": "inhibited DNA synthesis"},
      {"measurement": "order of inhibitory potency (DNA synthesis)", "setting": "[6]; 10 μM, FIG. 3", "result": "ECZ more potent than MCZ"}
    ]},
    {"compound": "OC(Cn1cncn1)(Cn1cncn1)c1ccc(F)cc1F", "note": "[fluconazole]", "values": [
      {"measurement": "inhibition of Ca++ activated 86Rb influx", "setting": "[2]; [14]", "result": "no inhibition"}
    ]},
    {"compound": "N=C(N)NC(=O)c1nc(Cl)c(N)nc1N", "note": "[amiloride]", "values": [
      {"measurement": "inhibition of (nonprostate cancer) cell proliferation", "setting": "nonprostate cancer cells", "result": "do not inhibit cell proliferation"}
    ]},
    {"compound": "CC(=O)N1CCN(c2ccc(OCC3COC(Cn4ccnc4)(c4ccc(Cl)cc4Cl)O3)cc2)CC1", "note": "(stereo not shown) [ketoconazole]", "values": [
      {"measurement": "blockade of 17-hydroxylase", "setting": "17-hydroxylase", "result": "partial blockade"},
      {"measurement": "inhibition of testicular and adrenal synthesis of steroid hormones, including testosterone", "setting": "[9]; in high doses", "result": "inhibits testicular and adrenal synthesis of steroid hormones, including testosterone"},
      {"measurement": "plasma testosterone", "setting": "[9]; prostate cancer treatment", "result": "reduces plasma testosterone to castration levels"},
      {"measurement": "inhibition of 21- and/or 11-hydroxylase", "setting": "[10]", "result": "marked inhibition"},
      {"measurement": "inhibition of growth/proliferation of nonprostate cancer cells", "setting": "nonprostate cancer cells; nonprostate cancer cells tested by the applicants", "result": "ineffective; also recorded: not useful for inhibiting proliferation"},
      {"measurement": "inhibition of 17-20 desmolase", "setting": "17-20 desmolase", "result": "inhibition"}
    ]},
    {"compound": "Cc1ncc([N+](=O)[O-])n1CC(O)CCl", "note": "(stereo not shown) [ornidazole]", "values": [
      {"measurement": "inhibition of Ca++ activated 86Rb influx", "setting": "[2]; [14]", "result": "no inhibition"}
    ]},
    {"compound": "Cc1ncc([N+](=O)[O-])n1CCO", "note": "[metronidazole]", "values": [
      {"measurement": "inhibition of Ca++ activated 86Rb influx", "setting": "[2]; [14]", "result": "only marginal"}
    ]},
    {"compound": "kaliotoxin: specific inhibitor of the Ca++ activated potassium channel", "values": [
      {"measurement": "inhibition of (nonprostate cancer) cell proliferation", "setting": "nonprostate cancer cells", "result": "do not inhibit proliferation"},
      {"measurement": "inhibition of DNA synthesis by other inhibitors of the Ca++ activated K channel", "setting": "[6]", "result": "failed to inhibit DNA synthesis"}
    ]}
  ]
}
